The numbers were not newly measured in patent publication US20130210878A1, “BENDAMUSTINE COMPOSITIONS AND METHODS THEREFORE” (Innopharma, Inc., priority 2012, published 2013), which cites them from elsewhere.

The conditions of the data set: 0.25 mg/ml in 0.9% sodium chloride.

SMILES strings stand for the structures. Like-named read-outs stand apart in the source and are kept apart here.

Consider `Cl.Cn1c(CCCC(=O)O)nc2cc(N(CCCl)CCCl)ccc21` [Bendamustine HCl, 1H-benzimidazole-2-butanoic acid, 5-[bis(2-chloro-ethyl)amino]-1 methyl-, monohydrochloride], for which the time stable by setting is: (4° C.) 4 days; (23° C.) 0.38 days.
